Test results: patent publication US20260374766A1, “METHODS FOR TREATING CANCER” (Antares Therapeutics, Inc., priority 2022, published 2026)
pIC50, pKd: −log10 of the molar value. Where two headings read alike, the source gives them in different places.

Key:
[1] = target: T1, p53 Y220C mutant protein (amino acid residues 94-293) (Homo sapiens, UniProt P04637, Y220C); assay: Surface Plasmon Resonance (SPR) assay, Kd_kinetic; assay type: binding; conditions: read-out: SPR P53 Y220C KD kinetic
T1 construct: p53 Y220C mutant protein (amino acid residues 94-293)
Outline: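 Temperature held at 16 or 20 °C during Biacore 8K runs. Buffer: 50 mM Tris, pH 7.5, 100 mM NaCl, 1 mM DTT, 0.01% Brij35, 0.05% Tween-20, 1% DMSO.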

H1299 p53 Y220C = assay: Cell Proliferation Assay (CellTiter-Glo, CTG), H1299 p53 Y220C (NClH1299-inducible p53 Y220C); assay type: cell-based; conditions: Homo sapiens, NCI-H1299, 120 h, CellTiter-Glo, 5 days
Outline: (§1)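 NClH1299 lines stably transduced with Tet-inducible p53 Y220C or R273H, plus NUGC3, were treated with compound for 5 days at 250-500 cells/well. IC50 derived from CellTiter-Glo luminescent signal after 10 min room-temperature incubation.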

p53 Y220C = p53 Y220C (Homo sapiens, UniProt P04637, Y220C); assay: Luciferase Reporter Assay (Luc), p53 response element, NClH1299 cells with inducible p53 Y220C; assay type: cell-based; conditions: luciferase reporter, NClH1299 inducible p53 Y220C, 6 hour; for AC50: read-out: Luc P53 Y220C AC50
Outline: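 Steps: seed 5,000 cells/well; induce mutant p53 with 0.5 ug/mL doxycycline for 24 h; treat with compound 6 h; add equal volume One-Glo, shake 5 min at room temperature; measure luciferase immediately.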

NUGC3 p53 Y220C = assay: Cell Proliferation Assay (CellTiter-Glo, CTG), NUGC3 p53 Y220C; assay type: cell-based; conditions: Homo sapiens, NUGC-3, 120 h, CellTiter-Glo, 5 days
Outline: as §1

[2] = target: T1, p53 Y220C mutant protein (amino acid residues 94-293); assay: Thermal Shift Assay (TSA), dTM; assay type: binding; conditions: for ΔTm at 10 µM: 10 uM compound; for ΔTm at 100 µM: 100 uM compound
Outline: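 5 μM protein + 10 μM or 100 μM cpd, 3 h, 20 °C; 20 mM HEPES pH7.4, 100 mM NaCl, 0.01% Pluronic F-127, 1% DMSO, Sypro Orange 400-fold dil. Ramp 30→50 °C, 0.03 °C/s. TM by Boltzmann two-state fit.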

H1299 p53 R273H = assay: Cell Proliferation Assay (CellTiter-Glo, CTG), H1299 p53 R273H (NClH1299-inducible p53 R273H); assay type: cell-based; conditions: Homo sapiens, NCI-H1299, 120 h, CellTiter-Glo, 5 days
Outline: as §1

[3] = 10 uM tool compound as positive control
[4] = thermal shift, read-out: TSA P53 Y220C dTM (10 uM)
[5] = thermal shift, read-out: TSA P53 Y220C dTM (100 uM)
[6] = NClH1299-inducible p53 Y220C cells
[7] = p53 Y220C, read-out: TSA P53 Y220C dTM
[8] = NClH1299-inducible p53 R273H cells

Row | SMILES | pKd [1] | pIC50 (H1299 p53 Y220C; H1299 p53 Y220C) | Emax (p53 Y220C; [3]) | AC50 (p53 Y220C) | pIC50 (NUGC3 p53 Y220C; NUGC3 p53 Y220C) | ΔTm at 10 µM [2, 4] | ΔTm at 100 µM [2, 5] | pIC50 (H1299 p53 R273H; H1299 p53 R273H) | pKd ([1]; SPR, kinetic KD, p53 Y220C) | pKd ([1]; SPR, p53 Y220C) | pIC50 (H1299 p53 Y220C; [6]) | AC50 (p53 Y220C; AC50) | Emax (p53 Y220C; Emax) | pIC50 (NUGC3 p53 Y220C; NUGC3 cells) | ΔTm at 10 µM [2, 7] | ΔTm at 100 µM [2, 7] | pIC50 (H1299 p53 R273H; [8])
1 | COc1cc(C(=O)N2CCOCC2)ccc1NCC#Cc1nc2c(N[C@@H]3CCN(C)C[C@@H]3F)cccn2c1SC(F)(F)F [Example 119] | > 8.00 | > 6.12 | 80 to 90% | < 750 nM | > 6.12 | ≥ 10 °C | ≥ 10 °C | ≤ 5.00 | – | – | – | – | – | – | – | – | –
2 | CNC(=O)c1ccc(NCC#Cc2nn3c(N[C@@H]4CCN(C)C[C@@H]4F)cccc3c2CC(F)(F)F)c(OC)c1 [Example 118] | – | 5.52 to 5.82 | 70 to 80% | 1500 to 3000 nM | 5.52 to 5.82 | – | 5 to 10 °C | ≤ 5.00 | 7.00 to 8.00 | – | – | – | – | – | – | – | –
3 | CNC(=O)c1ccc(NCC#Cc2nc3c(NC4COC4)cccn3c2SC(F)(F)F)c(OC)c1 [Example 225] | – | – | – | – | – | – | – | – | – | 7.00 to 8.00 | 5.82 to 6.12 | 750 to 1500 nM | 80 to 90% | 5.52 to 5.82 | 1 to 5 °C | 5 to 10 °C | ≤ 5.00
4 | CNC(=O)CN1CC[C@@H](Nc2nccn3c(SC(F)(F)F)c(C#CCNc4cc(C(=O)NC)ccc4OC)cc23)[C@@H](F)C1 [Example 352] | – | – | – | – | – | – | – | – | – | > 8.00 | > 6.12 | < 750 nM | > 90% | > 6.12 | ≥ 10 °C | – | ≤ 5.00
5 | CCOc1cc(C(=O)NC)ccc1NCC#Cc1nc2c(N[C@@H]3CCN(C)C[C@@H]3F)cccn2c1SC(F)(F)F [Example 127] | – | > 6.12 | 80 to 90% | < 750 nM | > 6.12 | ≥ 10 °C | ≥ 10 °C | 5.00 to 5.10 | > 8.00 | – | – | – | – | – | – | – | –
6 | COc1cc(S(C)(=O)=O)ccc1NCC#Cc1nc2c(NC3CCN(CC(C)(C)O)CC3)cccn2c1CC(F)(F)F [Example 11, 1-{4-[(2-{3-[(4-methanesulfonyl-2-methoxyphenyl)amino]prop-1-yn-1-yl}-3-(2,2,2-trifluoroethyl)imidazo [1,2-a]pyridin-8-yl)amino]piperidin-1-yl}-2-methylpropan-2-ol] | – | 5.82 to 6.12 | 70 to 80% | 1500 to 3000 nM | 5.52 to 5.82 | – | ≥ 10 °C | 5.10 to 5.30 | 7.00 to 8.00 | – | – | – | – | – | – | – | –
7 | CNC(=O)c1cnc(NCC#Cc2nc3c(N[C@@H]4CCN(C)C[C@@H]4F)cccn3c2SC(F)(F)F)c(OC)c1 [Example 136] | – | < 5.52 | 70 to 80% | 1500 to 3000 nM | < 5.52 | 5 to 10 °C | ≥ 10 °C | 5.00 to 5.10 | > 8.00 | – | – | – | – | – | – | – | –
8 | COc1cc2c[nH]nc2cc1NCC#Cc1nc2c(N[C@@H]3CCN(C)C[C@@H]3F)cccn2c1SC(F)(F)F [Example 308, N-[3-(8-{[(3S,4R)-3-fluoro-1-methylpiperidin-4-yl]amino}-3-[(trifluoromethyl)sulfanyl]imidazo[1,2-a]pyridin-2-yl)prop-2-yn-1-yl]-5-methoxy-2H-indazol-6-amine] | – | – | – | – | – | – | – | – | – | > 8.00 | > 6.12 | < 750 nM | 80 to 90% | > 6.12 | ≥ 10 °C | ≥ 10 °C | > 5.30
9 | COc1cc(S(C)(=O)=O)ccc1NCC#Cc1nc2c(N[C@@H]3CCN(C)C[C@@H]3F)cccn2c1SC(F)(F)F [Example 82, (3S,4R)-3-fluoro-N-(2-{3-[(4-methanesulfonyl-2-methoxyphenyl)amino]prop-1-yn-1-yl}-3-[(trifluoromethyl)sulfanyl]imidazo[1,2-a]pyridin-8-yl)-1-methylpiperidin-4-amine] | – | > 6.12 | 80 to 90% | < 750 nM | > 6.12 | – | ≥ 10 °C | 5.00 to 5.10 | > 8.00 | – | – | – | – | – | – | – | –
10 | CNC(=O)N1CCC(Nc2cccn3c(CC(F)(F)F)c(C#CCNc4ccc(S(C)(=O)=O)cc4OC)nc23)CC1 [Example 117, 4-[(2-{3-[(4-methanesulfonyl-2-methoxyphenyl)amino]prop-1-yn-1-yl}-3-(2,2,2-trifluoroethyl)imidazo[1,2-a]pyridin-8-yl)amino]-N-methylpiperidine-1-carboxamide] | – | < 5.52 | 70 to 80% | > 3000 nM | < 5.52 | – | 5 to 10 °C | ≤ 5.00 | 7.00 to 8.00 | – | – | – | – | – | – | – | –
11 | COc1ccc(C(N)=O)cc1NCC#Cc1nc2c(N[C@@H]3CCN(C)C[C@@H]3F)cccn2c1SC(F)(F)F [Example 138] | – | > 6.12 | 80 to 90% | < 750 nM | > 6.12 | ≥ 10 °C | ≥ 10 °C | 5.00 to 5.10 | > 8.00 | – | – | – | – | – | – | – | –
12 | CNC(=O)c1ccc(OC)c(NCC#Cc2nc3c(N[C@@H]4CCNC[C@@H]4F)nccn3c2SC(F)(F)F)c1 [Example 307] | – | – | – | – | – | – | – | – | – | > 8.00 | > 6.12 | < 750 nM | 80 to 90% | > 6.12 | ≥ 10 °C | – | ≤ 5.00
13 | COc1cc(S(N)(=O)=O)ccc1NCC#Cc1nc2c(N[C@@H]3CCN(C)C[C@@H]3F)cccn2c1CC(F)(F)F [Example 63, 4-{[3-(8-{[(3S,4R)-3-fluoro-1-methylpiperidin-4-yl]amino}-3-(2,2,2-trifluoroethyl)imidazo[1,2-a]pyridin-2-yl)prop-2-yn-1-yl]amino}-3-methoxybenzenesulfonamide] | – | 5.82 to 6.12 | 70 to 80% | 1500 to 3000 nM | 5.82 to 6.12 | – | ≥ 10 °C | ≤ 5.00 | 7.00 to 8.00 | – | – | – | – | – | – | – | –
14 | CNS(=O)(=O)c1ccc(NCC#Cc2nc3c(N[C@@H]4CCN(C)C[C@@H]4F)cccn3c2CC(F)(F)F)c(OC)c1 [Example 64, 4-{[3-(8-{[(3S,4R)-3-fluoro-1-methylpiperidin-4-yl]amino}-3-(2,2,2-trifluoroethyl)imidazo[1,2-a]pyridin-2-yl)prop-2-yn-1-yl]amino}-3-methoxy-N-methylbenzenesulfonamide] | – | > 6.12 | 70 to 80% | 750 to 1500 nM | > 6.12 | ≥ 10 °C | ≥ 10 °C | 5.00 to 5.10 | > 8.00 | – | – | – | – | – | – | – | –
